The values that follow come from US20100286200A1, “COMBINATION OF METFORMIN AND AN MTP INHIBITOR” (JANSSEN PHARMACEUTICA NV, priority 2008, published 2010).

Data set [1] deals with subjects with type 2 diabetes mellitus undergoing metformin treatment. Kind of data set: Proof-of-concept 12-week double-blind, randomized, placebo-controlled study of the MTP inhibitor in subjects on metformin treatment. It counts as in vivo, human. The source says:
Proof-of-concept study of combinations of metformin and the MTP inhibitor (+)-phenyl-(4-{4-[(4′-trifluoromethyl-biphenyl-2-carbonyl)-amino]-phenyl}-piperidin-1-yl)-acetic acid methyl ester
Safety and efficacy of the MTP inhibitor (+)-phenyl-(4-{4-[(4′-trifluoromethyl-biphenyl-2-carbonyl)-amino]-phenyl}-piperidin-1-yl)-acetic acid methyl ester in the treatment of subjects with type 2 diabetes mellitus undergoing metformin treatment has been investigated. Three dosing regimens of the MTP inhibitor, 5-10-15 mg bid, were compared to placebo in a double-blind, randomized, parallel-group study design of 12 weeks wherein all subjects were following metformin treatment. All subjects remained on a calorically appropriate, low fat (≦30%) diet, being in accordance with the local practice guidelines for the treatment of type 2 diabetes.
Subjects randomized into the study had to have type 2 diabetes for at least 3 months and remained on a stable metformin monotherapy for at least 2 months. There were 88, 84, 91 and 89 patients randomized to placebo, 5 mg, 10 mg and 15 mg BID. Mean age was 55 years and there were slightly more males than females randomized into the study (males:females—54%:46%).
The mean baseline glycosylated hemoglobin (HbA1c) was 7.8±0.8% (mean±SD) and the mean plasma glucose was 9.1±1.80 mmol/L (mean±SD). The majority (68%) of subjects had HbA1c levels≦8%.
Mean weight at baseline was 94.9 kg and varied between 92.8 kg and 96.7 kg in different treatment groups, while the mean baseline BMI was 32.8 kg/m^2.

For data set [2] the following is noted: cited from earlier work.
The mark [3] stands for this setting: 5 mg bid, with metformin, week 12.
Setting [4] is: 10 mg bid and 15 mg bid, combination with metformin.
Where [5] appears, read: 10 mg bid, with metformin, Week 12.
The mark [6] stands for this setting: 15 mg bid, with metformin, Week 12.

In the case of `COC(=O)C(c1ccccc1)N1CCC(c2ccc(NC(=O)c3ccccc3-c3ccc(C(F)(F)F)cc3)cc2)CC1` (single isomer, unassigned; (+)) [(+)-phenyl-(4-{4-[(4′-trifluoromethyl-biphenyl-2-carbonyl)-amino]-phenyl}-piperidin-1-yl)-acetic acid methyl ester], in data set [1] (5 mg bid, with metformin), the “mean body weight loss at Week 12” value was 1.71 kg, the “mean body weight loss at Week 12 (percent)” value is listed as 1.0% and the “mean percentage change from baseline at week 12 in fasting plasma glucose (FPG)” value (“mean percentage change from baseline” below) is −2.3%. For the same compound, the “mean decrease in HbA1c (%), change from baseline at Week 12” value (from here on “mean decrease in HbA1c (%), change”) in data set [1] (5 mg bid, with metformin, Week 12, baseline HbA1c 7.8±0.8%) is −0.46%. Moreover, in data set [1] (setting [3]), the “HbA1c least square mean (mixed model) difference from placebo” value is given as 0.19 and the “absolute change from baseline in FPG (decrease)” value (“absolute change … (decrease)” for short) was found to be 0.37 mmol/L. In addition, in data set [1] (setting [4]), the “LDL levels (fasting plasma lipids)” value is on record as “Beneficial effects” and the “ratio of LDL over HDL (fasting plasma lipids)” value is recorded as “Beneficial effects”. Also, in data set [1] (10 mg bid, with metformin), the “mean body weight loss at Week 12” value is 2.80 kg, the “mean body weight loss at Week 12 (percent)” value was determined as 2.9% and the “mean percentage change from baseline” value is given as −6.1%. Further, in data set [1] (setting [5]), the “HbA1c least square mean (mixed model) difference from placebo” value is given as 0.28; the “absolute change … (decrease)” value came out at 0.063 mmol/L; the “mean decrease in HbA1c (%), change” value is −0.55%. Besides, in data set [1] (15 mg bid, with metformin), the “mean body weight loss at Week 12” value was found to be 3.37 kg, the “mean body weight loss at Week 12 (percent)” value is 3.6% and the “mean percentage change from baseline” value is on record as −6.0%. For the same compound, in data set [1] (setting [6]), the “HbA1c least square mean (mixed model) difference from placebo” value turned out to be 0.28; the “absolute change … (decrease)” value is reported as 0.63 mmol/L; the “mean decrease in HbA1c (%), change” value is −0.54%. In data set [1] (all active treatment arms (5, 10, 15 mg bid), with metformin), the “change from baseline at Week 12 of HbA1c levels vs. placebo (mixed model analysis)” value is “statistically significant decrease vs. placebo”. Also, in data set [2], the “metabolism in the plasma” value is on record as “rapidly metabolised in the plasma” and the systemic plasma concentrations entry is recorded as “very low systemic plasma concentrations”.
